Measurements reported in patent US6420367B1, “Pyrimidine derivatives exhibiting antitumor activity” (Shionogo & Co., Ltd., priority 1998, dated 2002).
≈ marks a conversion by molar mass, not a printed value.

Key:
[1] = tested on: DT-R cells (pRRE3-luc-transfected v-ki-ras-transformed NIH3T3 cells); signal derived from Ras oncogene products; test: Inhibitory effect against cellular signaling derived from Ras oncogene products: luciferase reporter, dissociation of DT-R from DT-C activity (MAC); type: cell-based, mouse; conditions: minimal tested concentration at which luciferase activities of DT-C cells and DT-R cells dissociated
Method in brief: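 Value is a minimal active concentration: lowest dose where Ras-responsive reporter (DT-R) luciferase diverges from SV40-minimal-promoter control (DT-C). Both transfected v-Ki-ras NIH3T3 lines received 3-fold serial dilutions for 24 h at 37 °C in 10% FCS medium before lysis and luminometry.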

[2] = tested on: DT-C cells (pGV-P-transfected v-ki-ras-transformed NIH3T3 cells); test: Luciferase activity in control DT-C cells (IC50-C): non-specific transcription-inhibitory effect or cytotoxicity; type: cell-based, mouse; conditions: tested concentration nearest to 50% inhibition in DT-C cells; index of non-specific transcription inhibition or cytotoxicity
Excerpt: Test Example 1 Inhibitory Effect Against Cellular Signaling Derived From Ras Oncogene Products
1) Establishment of Cell Lines Used in Assay
Based on the reporter plasmid (pGV-P (Toyo Ink, Japan)), in which luciferase gene was ligated to SV40-derived minimal promoter, we constructed a plasmid designated pRRE3-luc by inserting 3 copies of chemically synthesized oligonucleotides (Sequence: CAGGATATGACTCT, derived from mouse NVL-3 (M. A. Reddy et al.(1992)Mol. Endocrinol., 6, 1051)) into upstream of the promoter. v-ki-ras-transformed NIH3T3 cells (DT cells, provided by Dr. Makoto Noda (Kyoto Univ., School of medicine)) were transfected with this plasmid by liposome-mediated transfection and transfected cell lines stably incorporated and maintained each plasmid were obtained. We named pGV-P and pRRE3-transfected cell line as DT-C and DT-R, respectively and used in the assay described below.
2) Preparation of Samples
i) All the cell lines were cultured in Dulbecco's Modified Essential Medium (DMEM: 10% Fetal Calf Serum(FCS: Hyclone, USA)) including […] kanamycin (Meiji Seika, Japan) in humidified incubator under condition of 5% CO2 at 37° C.
ii) DT-C and DT-R cells were seeded at 2500 cells/well into flat-bottom 96 well multiplate (Sumitomo bakelite) and incubated for 24 hours.
iii) Test compounds were prepared as 1 mg/ml DMSO solution.
iv) The solution of test compounds were added to the culture. Tested compounds are used at the concentration from […] to 0.51 ng/ml with by 3-fold dilution.
v) After 24 hours, the culture supernatant was completely aspirated and […] of cell-lysing solution (PGC-50 (Toyo Ink, Japan)) was added before cells were dried up. In order to the cells were lysed completely, multiwell plates were left at room temperature for 10 to 30 min. The plates were wrapped up and stored at −20° C. till the day of measurement.
3) Measurement of Samples
i) Melt the samples by putting 96 well multiplate at 37° C. and add 90 μl/well 25 mM Tris (pH 7.5).
ii) Transfer 50 μl of the sample (110 μl) to the 96 well microplate for measurement (Microlite 1 (Dynatech)).
iii) Measure the samples by the luminometer, LUMINOUS CT9000D (Dia-Yatron, Japan). We used Pickagene luminescence kit PGL2000 or LT2.0 (Toyo Ink, Japan) as substrates for luminescence measurement (50 μl/well).
4) Judgment of the Results
i) The luciferase activity of DT-C cells and DT-R cells were plotted in the graph where the relative activity and the compound concentration were expressed as Y-axis and X-axis, respectively. We judged by the degree of dissociation between the activities of DT-C cells and DT-R cells as an index.
ii) Concretely, efficacy of the compound was expressed by two values described below.
b) Among the points of concentration tested, the concentration which is the nearest to 50% inhibition concentration at DT-C cells (IC50-C), was shown as an index of non-specific transcription-inhibitory effect or of cytotoxicity. In case of positive compounds, 50% inhibition concentration above the area of active concentration in DT-C cells was expressed as IC50-C.

[3] = tested on: human colon cancer HT29; test: In vitro cell growth inhibition test, MTT assay; type: cell-based; conditions: MTT assay 4 days after compound addition
Method in brief: (§1)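 Read-out is MTT-based cell growth inhibition, run in parallel on human lung, colon and pancreatic (PANC-1) tumour lines.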

[4] = tested on: human lung adenocarcinoma A549; test: In vitro cell growth inhibition test, MTT assay; type: cell-based; conditions: MTT assay 4 days after compound addition
Method in brief: as §1

[5] = tested on: human pancreas cancer PANC-1; test: In vitro cell growth inhibition test, MTT assay; type: cell-based; conditions: MTT assay 4 days after compound addition
Method in brief: as §1

[6] = tested on: human squamous lung cancer Ma44; test: In vitro cell growth inhibition test, MTT assay; type: cell-based; conditions: MTT assay 4 days after compound addition
Method in brief: as §1

[7] = tested on: human squamous lung cancer RERF-RC-AI; test: In vitro cell growth inhibition test, MTT assay; type: cell-based; conditions: MTT assay 4 days after compound addition
Method in brief: as §1

Row | SMILES | MAC (Minimal Active Concentration) [1] | IC50-C [2] | IC50, HT29 [3] | IC50, A549 [4] | IC50, PANC-1 [5] | IC50, Ma44 [6] | IC50, RERF-LC-AI [7]
1 | CCNC(=Nc1nc(C)ncc1CSc1nnc(-c2ccc(N)c(O)c2)o1)NCC [Compound A-89] | 0.123 µg/mL | >10 µg/mL | 0.05 µg/mL (≈ 0.117 µM) | 0.15 µg/mL (≈ 0.35 µM) | 0.049 µg/mL (≈ 0.114 µM) | 0.86 µg/mL (≈ 2.01 µM) | 0.016 µg/mL (≈ 0.0373 µM)
2 | CCNC(=Nc1ncncc1CSc1nnc(-c2ccc(CN)cc2)o1)NCC [Compound A-119] | 0.37 µg/mL | >10 µg/mL | 0.1 µg/mL (≈ 0.242 µM) | 1.2 µg/mL (≈ 2.91 µM) | 0.068 µg/mL (≈ 0.165 µM) | 0.2 µg/mL (≈ 0.485 µM) | 0.023 µg/mL (≈ 0.0558 µM)
3 | CCNC(=Nc1ncncc1CSc1nnc(-c2ccc([N+](=O)[O-])cc2)o1)NC(C)C [Compound A-121] | <0.000508 µg/mL | >10 µg/mL | 0.02 µg/mL (≈ 0.0452 µM) | 0.058 µg/mL (≈ 0.131 µM) | 0.02 µg/mL (≈ 0.0452 µM) | 0.02 µg/mL (≈ 0.0452 µM) | 0.02 µg/mL (≈ 0.0452 µM)
4 | CCCNC(=Nc1nc(C)ncc1CSc1nnc(-c2ccc([N+](=O)[O-])cc2)o1)NCCC [Compound A-127] | 0.0137 µg/mL | 3.33 µg/mL (≈ 7.08 µM) | 0.018 µg/mL (≈ 0.0383 µM) | 0.028 µg/mL (≈ 0.0595 µM) | 0.017 µg/mL (≈ 0.0361 µM) | 0.017 µg/mL (≈ 0.0361 µM) | 0.015 µg/mL (≈ 0.0319 µM)
5 | CCCCNC(=Nc1nc(C)ncc1CSc1nnc(-c2ccc([N+](=O)[O-])cc2)o1)NCCCC [Compound A-128] | 0.0412 µg/mL | 3.33 µg/mL (≈ 6.68 µM) | 0.042 µg/mL (≈ 0.0842 µM) | 0.047 µg/mL (≈ 0.0943 µM) | 0.026 µg/mL (≈ 0.0521 µM) | 0.044 µg/mL (≈ 0.0882 µM) | 0.036 µg/mL (≈ 0.0722 µM)
6 | CCNC(=Nc1nc(C(C)C)ncc1CSc1nnc(-c2ccc([N+](=O)[O-])cc2)o1)NCC [Compound A-130] | 0.123 µg/mL | 3.33 µg/mL (≈ 7.08 µM) | 0.029 µg/mL (≈ 0.0616 µM) | 0.074 µg/mL (≈ 0.157 µM) | 0.018 µg/mL (≈ 0.0383 µM) | 0.039 µg/mL (≈ 0.0829 µM) | 0.023 µg/mL (≈ 0.0489 µM)
7 | CCNC(=Nc1nc(CC)ncc1CSc1nnc(-c2ccc([N+](=O)[O-])cc2)o1)NCC [Compound A-131] | 0.0412 µg/mL | >10 µg/mL | 0.025 µg/mL (≈ 0.0548 µM) | 0.03 µg/mL (≈ 0.0657 µM) | 0.028 µg/mL (≈ 0.0613 µM) | 0.028 µg/mL (≈ 0.0613 µM) | 0.015 µg/mL (≈ 0.0329 µM)
8 | CCNC(=Nc1nc(C)ncc1CSc1nnc(-c2ccc([N+](=O)[O-])cc2)o1)NC [Compound A-133] | 0.0137 µg/mL | >10 µg/mL | 0.068 µg/mL (≈ 0.159 µM) | 0.047 µg/mL (≈ 0.11 µM) | 0.015 µg/mL (≈ 0.035 µM) | 0.015 µg/mL (≈ 0.035 µM) | 0.01 µg/mL (≈ 0.0233 µM)
9 | CCCCNC(=Nc1nc(C)ncc1CSc1nnc(-c2ccc([N+](=O)[O-])cc2)o1)NCC [Compound A-136] | 0.0137 µg/mL | 3.33 µg/mL (≈ 7.08 µM) | 0.011 µg/mL (≈ 0.0234 µM) | 0.031 µg/mL (≈ 0.0659 µM) | 0.016 µg/mL (≈ 0.034 µM) | 0.016 µg/mL (≈ 0.034 µM) | 0.012 µg/mL (≈ 0.0255 µM)
10 | CCCNC(=Nc1nc(CC)ncc1CSc1nnc(-c2ccc([N+](=O)[O-])cc2)o1)NCCC [Compound A-138] | 0.0412 µg/mL | 1.11 µg/mL (≈ 2.29 µM) | 0.03 µg/mL (≈ 0.0619 µM) | 0.046 µg/mL (≈ 0.0949 µM) | 0.026 µg/mL (≈ 0.0537 µM) | 0.04 µg/mL (≈ 0.0825 µM) | 0.043 µg/mL (≈ 0.0887 µM)
11 | CCCNC(=Nc1nc(CC)ncc1CSc1nnc(-c2ccc(F)cc2N)o1)NCCC [Compound A-140] | 0.0137 µg/mL | 3.33 µg/mL (≈ 7.05 µM) | 0.013 µg/mL (≈ 0.0275 µM) | 0.022 µg/mL (≈ 0.0466 µM) | 0.012 µg/mL (≈ 0.0254 µM) | 0.047 µg/mL (≈ 0.0995 µM) | 0.015 µg/mL (≈ 0.0317 µM)
12 | CCCNC(=Nc1nc(C)ncc1CSc1nnc(-c2ccc(Cl)cc2)o1)NCCC [Compound A-142] | 0.0412 µg/mL | 1.11 µg/mL (≈ 2.41 µM) | 0.032 µg/mL (≈ 0.0696 µM) | 0.038 µg/mL (≈ 0.0826 µM) | 0.015 µg/mL (≈ 0.0326 µM) | 0.021 µg/mL (≈ 0.0457 µM) | 0.018 µg/mL (≈ 0.0391 µM)
13 | CCCNC(=Nc1nc(C)ncc1CSc1nnc(-c2ccc(C)cc2)o1)NCCC [Compound A-143] | 0.0412 µg/mL | 1.11 µg/mL (≈ 2.53 µM) | 0.024 µg/mL (≈ 0.0546 µM) | 0.052 µg/mL (≈ 0.118 µM) | 0.02 µg/mL (≈ 0.0455 µM) | 0.033 µg/mL (≈ 0.0751 µM) | 0.023 µg/mL (≈ 0.0523 µM)
14 | CCCNC(=Nc1nc(C)ncc1CSc1nnc(-c2ccc(N)cc2)o1)NCCC [Compound A-144] | 0.0137 µg/mL | >10 µg/mL | 0.006 µg/mL (≈ 0.0136 µM) | 0.019 µg/mL (≈ 0.0431 µM) | 0.016 µg/mL (≈ 0.0363 µM) | 0.031 µg/mL (≈ 0.0704 µM) | 0.007 µg/mL (≈ 0.0159 µM)
15 | CNC(=Nc1nc(C)ncc1CSc1nnc(-c2ccc([N+](=O)[O-])cc2)o1)NC [Compound A-145] | 0.0412 µg/mL | >10 µg/mL | 0.007 µg/mL (≈ 0.0169 µM) | 0.09 µg/mL (≈ 0.217 µM) | 0.014 µg/mL (≈ 0.0338 µM) | 0.032 µg/mL (≈ 0.0772 µM) | 0.005 µg/mL (≈ 0.0121 µM)
16 | CCCNC(=Nc1nc(C)ncc1CSc1nnc(-c2ccc([N+](=O)[O-])cc2)o1)NC [Compound A-146] | 0.0137 µg/mL | >10 µg/mL | 0.014 µg/mL (≈ 0.0316 µM) | 0.18 µg/mL (≈ 0.407 µM) | 0.024 µg/mL (≈ 0.0542 µM) | 0.052 µg/mL (≈ 0.118 µM) | 0.011 µg/mL (≈ 0.0249 µM)
